This is an account of results in patent US20170304388A1, “NEW INDICATION OF CARDIOVASCULAR DRUGS FOR PREPARATION OF CANCER INHIBITION PHARMACEUTICAL COMPOSITION” (LAUNX BIOMEDICAL CO., LTD., priority 2014, published 2017).

Structures can show the parent of a compound that is named as a salt.

Format in all cases: cell-based
The subject of data set [1] is HL-60 (Acute Promyelocytic Leukemia). The data set can be described thus: Cell viability analysis (WST-1), HL-60. To be noted: Table 3, drug 10 μM, 72 hours, WST-1, OD450 nm; for viability at 10 µM: Homo sapiens, HL-60, read-out: survival rate (viability) of cancer cells, HL-60. (In general: Tetrazolium dyes change colour on reduction, which living cells bring about.)

Data set [2] relates to LoVo (Colorectal Adenocarcinoma). The data set can be described thus: Cell viability analysis (WST-1), LoVo. To be noted: WST-1, OD450 nm; for viability at 10 µM: Homo sapiens, LoVo, 72 h, Table 3, drug 10 μM, read-out: survival rate (viability) of cancer cells, LoVo.
Data set [3] concerns MCF7 (Mammary Gland, Adenocarcinoma). In words: Cell viability analysis (WST-1), MCF7. To be noted: WST-1, OD450 nm; for viability at 10 µM: Homo sapiens, MCF7, 72 h, Table 3, drug 10 μM, read-out: survival rate (viability) of cancer cells, MCF7.
The subject of data set [4] is HCT116 (Colorectal Carcinoma). The data set can be described thus: Cell viability analysis (WST-1), HCT116. To be noted: WST-1, OD450 nm; for viability at 10 µM: Homo sapiens, HCT-116, 72 h, Table 3, drug 10 μM, read-out: survival rate (viability) of cancer cells, HCT116 (WT).
Data set [5] relates to AGS (Gastric Adenocarcinoma). In words: Cell viability analysis (WST-1), AGS. To be noted: WST-1, OD450 nm; for viability at 10 µM: 72 h, Table 3, drug 10 μM, read-out: survival rate (viability) of cancer cells, AGS.
For data set [6], the system named is HeLa (Cervix Adenocarcinoma). In words: Cell viability analysis (WST-1), HeLa. To be noted: WST-1, OD450 nm; for viability at 10 µM: Homo sapiens, HeLa, 72 h, Table 3, drug 10 μM, read-out: survival rate (viability) of cancer cells, HeLa.
Data set [7] has as its system HepG2 (Hepatocellular Carcinoma). In words: Cell viability analysis (WST-1), HepG2. To be noted: WST-1, OD450 nm; for viability at 10 µM: Homo sapiens, HepG2, 72 h, Table 3, drug 10 μM, read-out: survival rate (viability) of cancer cells, HepG2.
Data set [8] relates to A549 (Lung Adenocarcinoma). In words: Cell viability analysis (WST-1), A549. To be noted: WST-1, OD450 nm; for viability at 10 µM: Homo sapiens, A549, 72 h, Table 3, drug 10 μM, read-out: survival rate (viability) of cancer cells, A549.
Data set [9] deals with H1650 (Lung Adenocarcinoma). The data set can be described thus: Cell viability analysis (WST-1), H1650. To be noted: WST-1, OD450 nm; for viability at 10 µM: Homo sapiens, NCI-H1650, 72 h, Table 3, drug 10 μM, read-out: survival rate (viability) of cancer cells, H1650.
Data set [10] concerns TSGH-8301 (Urinary Bladder Carcinoma). The data set can be described thus: Cell viability analysis (WST-1), TSGH-8301. To be noted: WST-1, OD450 nm; for viability at 10 µM: 72 h, Table 3, drug 10 μM, read-out: survival rate (viability) of cancer cells, TSGH.
Data set [11] deals with A375 (Amelanotic Melanoma). The data set can be described thus: Cell viability analysis (WST-1), A375. To be noted: WST-1, OD450 nm, lower viability = better inhibition; for viability at 10 µM: Homo sapiens, A-375, 72 h, Table 3, drug 10 μM, read-out: survival rate (viability) of cancer cells, A375.
Data set [12] deals with PC3 (Prostate Adenocarcinoma). In words: Cell viability analysis (WST-1), PC3. To be noted: WST-1, OD450 nm; for viability at 10 µM: 72 h, Table 3, drug 10 μM, read-out: survival rate (viability) of cancer cells, PC3.
The test system of data set [13] is MKN-45 (Gastric Adenocarcinoma). The data set can be described thus: Cell viability analysis (WST-1), MKN-45. To be noted: WST-1, OD450 nm; for viability at 10 µM: Homo sapiens, MKN-45, 72 h, Table 3, drug 10 μM, read-out: survival rate (viability) of cancer cells, MKN-45.
Data set [14] has as its system cancer cell lines. The data set can be described thus: Growth inhibitory effects on the panel of cancer cell lines. To be noted: drug 10 μM, 72 hours; for Numbers of inhibitory effect on cancer cell line: count of cancer cell lines inhibited; for inhibition effect on different cancer cell lines (in words): WST-1.

By viability is commonly meant a read-out of living cells in per cent, often relative to untreated cells. For `CCCCNc1cc(C(=O)O)cc(S(N)(=O)=O)c1Oc1ccccc1` [Bumetanide], the viability at 10 µM in data set [1] came out at 98.3%; in data set [2] it was 98.6%; in [3] it was 116%; in data set [4], 66.8%; in data set [5] it was 69.9%; in [6], 79.5%. In addition, the viability at 10 µM is 86% in data set [7]; 88.2% in data set [8]; 105% in [9]; 92.6% in data set [10]; 67.6% in [11]; 72.7% in [12]. For the same compound, the viability at 10 µM in data set [13] came to 98.8%. The “Numbers of inhibitory effect on cancer cell line” value (“Numbers of inhibitory effect” for short) in [14] is reported as 0. Also, the “inhibition effect on different cancer cell lines (in words)” value in data set [14] is reported as “significant inhibition effect”.
Turning to `O=C(O)c1cc(=O)c2ccccc2o1` [Chromocarb], the viability at 10 µM came out at 110% in data set [1]; 72.5% in data set [2]; 100% in data set [3]; 72.8% in data set [4]; 81.8% in data set [5]; 67.6% in data set [6]. Also, the viability at 10 µM in data set [7] was 95.6%; in data set [8], 61.1%; in data set [9], 78.8%; in [10], 97.2%; in [11], 63.4%; in data set [12], 88.3%. Besides, the viability at 10 µM in [13] was 100%. Moreover, the “Numbers of inhibitory effect” value in data set [14] is given as 0. Moreover, in [14], the “inhibition effect on different cancer cell lines (in words)” value is recorded as “significant inhibition effect”.
In the case of `Cc1cccc(Cc2c[nH]cn2)c1C` [Detomidine HCl], the viability at 10 µM in [1] came to 105%; in data set [2] it was 91%; in data set [3] it was 106%; in [4], 133%; in [5], 68.5%; in data set [6], 88.8%. For the same compound, the viability at 10 µM in data set [7] was determined as 102%; in [8] it was 81.1%; in data set [9], 90.6%; in [10], 74.2%; in [11] it was 84.8%; in [12], 89.2%. Also, the viability at 10 µM in data set [13] stood at 91%. In addition, the “Numbers of inhibitory effect” value in [14] is 0. For the same compound, the “inhibition effect on different cancer cell lines (in words)” value in [14] is recorded as “significant inhibition effect”.
Consider `Cc1c(OCC(F)(F)F)ccnc1C[S@@+]([O-])c1nc2ccccc2[nH]1` [Dexlansoprazole], for which the viability at 10 µM was 72.2% in data set [1]; 102% in data set [2]; 72.1% in [3]; 82.8% in data set [4]; 89.8% in [5]; 105% in data set [6]. Besides, the viability at 10 µM is 120% in [7]; 74.5% in data set [8]; 69.6% in data set [9]; 84.9% in data set [10]; 75.1% in [11]; 104% in data set [12]. Moreover, the viability at 10 µM in data set [13] was found to be 85.8%. Further, in data set [14], the “Numbers of inhibitory effect” value is 0. In addition, the “inhibition effect on different cancer cell lines (in words)” value in data set [14] was “significant inhibition effect”.
For `CNC[C@@H](O)c1ccc(O)c(O)c1` [L-Adrenaline (Epinephrine), L-Adrenaline], the “survival rate (viability) of cancer cells, HL-60” value in data set [1] is reported as 101.8. For the same compound, the “survival rate (viability) of cancer cells, LoVo” value in [2] (Table 3, drug 10 μM, 72 hours) is 93.6. Also, the “survival rate (viability) of cancer cells, MCF7” value in data set [3] (Table 3, drug 10 μM, 72 hours) was determined as 123.0. The “survival rate (viability) of cancer cells, HCT116 (WT)” value in [4] (Table 3, drug 10 μM, 72 hours) was found to be 85.0. The “survival rate (viability) of cancer cells, AGS” value in data set [5] (Table 3, drug 10 μM, 72 hours) is given as 61.1. Besides, the “survival rate (viability) of cancer cells, HeLa” value in data set [6] (Table 3, drug 10 μM, 72 hours) is 88.7. In addition, the “survival rate (viability) of cancer cells, HepG2” value in data set [7] (Table 3, drug 10 μM, 72 hours) is recorded as 81.6. The “survival rate (viability) of cancer cells, A549” value in [8] (Table 3, drug 10 μM, 72 hours) is on record as 90.8. The “survival rate (viability) of cancer cells, H1650” value in data set [9] (Table 3, drug 10 μM, 72 hours) came to 76.6. In addition, in [10] (Table 3, drug 10 μM, 72 hours), the “survival rate (viability) of cancer cells, TSGH” value turned out to be 64.7. The “survival rate (viability) of cancer cells, A375” value in [11] (Table 3, drug 10 μM, 72 hours) is on record as 101.9. The “survival rate (viability) of cancer cells, PC3” value in data set [12] (Table 3, drug 10 μM, 72 hours) is reported as 106.0. The “survival rate (viability) of cancer cells, MKN-45” value in data set [13] (Table 3, drug 10 μM, 72 hours) was found to be 69.4. In data set [14], the “Numbers of inhibitory effect” value came to 0 and the “inhibition effect on different cancer cell lines (in words)” value is listed as “significant inhibition effect”.
With `CC(C)NC[C@H](O)COc1ccc(CCOCC2CC2)cc1` [Levobetaxolol HCl], the viability at 10 µM is 107% in [1]; 80% in data set [2]; 85% in data set [3]; 70.3% in [4]; 62.5% in data set [5]; 88.7% in data set [6]. Besides, the viability at 10 µM in [7] worked out at 99.2%; in data set [8], 75.9%; in data set [9], 69.9%; in [10], 98.2%; in data set [11], 76.9%; in [12], 77.3%. The viability at 10 µM in [13] was determined as 119%. Besides, in data set [14], the “Numbers of inhibitory effect” value was determined as 0. Further, the “inhibition effect on different cancer cell lines (in words)” value in [14] is reported as “significant inhibition effect”.
As for `O=C(O)c1nn(Cc2ccc(Cl)cc2Cl)c2ccccc12` [Lonidamine], the viability at 10 µM turned out to be 115% in [1]; 96.1% in data set [2]; 86.9% in [3]; 81.2% in data set [4]; 69.9% in [5]; 61.6% in [6]. Also, the viability at 10 µM in data set [7] was found to be 114%; in [8] it was 109%; in data set [9] it was 65.9%; in data set [10], 86.4%; in data set [11] it was 65.8%; in [12] it was 102%. Further, the viability at 10 µM in data set [13] stood at 93.3%. Also, the “Numbers of inhibitory effect” value in [14] was 0. The “inhibition effect on different cancer cell lines (in words)” value in data set [14] is “significant inhibition effect”.
Turning to `CO[C@@H]1[C@@H](OC(N)=O)[C@@H](O)[C@H](Oc2ccc3c(O)c(NC(=O)c4ccc(O)c(CC=C(C)C)c4)c(=O)oc3c2C)OC1(C)C` [Novobiocin sodium (Albamycin), Novobiocin sodium], the viability at 10 µM in [1] came to 123%; in data set [2] it was 87.1%; in [3], 109%; in [4] it was 116%; in data set [5], 128%; in [6], 96.1%. For the same compound, the viability at 10 µM in [7] came to 92%; in data set [8] it was 95.2%; in data set [9], 93.5%; in data set [10], 85.3%; in [11], 93.4%; in data set [12], 89%. For the same compound, the viability at 10 µM in data set [13] came out at 84.4%. Further, in [14], the “Numbers of inhibitory effect” value is recorded as 0. For the same compound, the “inhibition effect on different cancer cell lines (in words)” value in data set [14] is recorded as “significant inhibition effect”.
With `CC(=O)O[C@H]1C[C@@H]2CC[C@@H]3[C@H](CC[C@@]4(C)[C@H]3C[C@H]([N+]3(C)CCCCC3)[C@@H]4OC(C)=O)[C@@]2(C)C[C@@H]1[N+]1(C)CCCCC1` [Pancuronium (Pavulon), Pancuronium], the viability at 10 µM was determined as 109% in data set [1]; 79.8% in data set [2]; 110% in [3]; 102% in data set [4]; 120% in data set [5]; 83.3% in data set [6]. The viability at 10 µM came out at 92.7% in [7]; 100% in data set [8]; 91.7% in [9]; 68.3% in data set [10]; 75.4% in [11]; 108% in data set [12]. Moreover, the viability at 10 µM in data set [13] was found to be 95.3%. Further, in data set [14], the “Numbers of inhibitory effect” value is 0. In data set [14], the “inhibition effect on different cancer cell lines (in words)” value is recorded as “significant inhibition effect”.
